Entries after “also recorded” stand apart in the source; their conditions may differ.
Columns and labels:
Type in all cases: in vivo
Zucker fa/fa rat [1] = experiment: 28-day feeding study: dietary intake, body weight gain, organ weights; settings: compared to V group; for suppression of body weight gain: feeding period of 28 days
Experimental: (§1) The Zucker fa/fa rat is polyphagous and used as an obesity model and also as a hyperinsulinemia or insulin resistance model.
Eight-week old Zucker fa/fa (Obesity model)
Vehicle (V) fa/fa Basic diet
Onion (O) fa/fa Basic diet+5% Onion
(§2) Dietary intake, body weight gain, liver weight, kidney weight, peritesticular fat weight, glucose tolerance test, blood glucose level, serum insulin, total serum cholesterol, serum triglyceride, serum free fatty acid, and serum leptin.
(§3) Significant tests were carried out using the t test. Two-tailed tests were used for the V group, with significance expressed at p<0.05 (*) and p<0.01 (**).

Zucker fa/fa rat [2] = experiment: Glucose tolerance test
Experimental: as §1, §3
Glucose tolerance tests were carried out in each group of rats at the 2nd week (9-week old) and 4th (11-week old) week after the start of experiment. After 16 hours of fasting, each group of rats was forcedly allowed to ingest 2 g/kg body weight of D-glucose, followed by measuring blood glucose level with time.

Zucker fa/fa rat [3] = experiment: Serum parameters and blood glucose level at autopsy; settings: compared to V group
Experimental: as §1, §2, §3
At autopsy, serum insulin and blood glucose level were measured.

## trivalent chromium-nicotinic acid complex [Cr]
Zucker fa/fa rat [1]; 28 days feeding
  weight of kidney: no significant difference
  weight of peritesticular fat: no significant difference
Zucker fa/fa rat [1]
  suppression of body weight gain: no significant difference
Zucker fa/fa rat [1]; listed as trivalent chromium-nicotinic acid complex
  suppression of body weight gain: neither the trivalent chromium-nicotinic acid complex alone nor the onion extract alone had the effect
Zucker fa/fa rat [2]; 2nd and 4th week, after 2 g/kg D-glucose, no time point stated, compared to V group
  blood glucose level in glucose tolerance test: no significant difference
Zucker fa/fa rat [2]; conclusion from glucose tolerance test and serum insulin, 2 to 4 weeks
  effect of improving insulin resistance: neither the trivalent chromium-nicotinic acid complex alone nor the onion extract alone had the effect
Zucker fa/fa rat [3]; at autopsy
  blood glucose level: no significant difference
  serum insulin content: no significant difference
Zucker fa/fa rat [3]
  serum free fatty acid (FFA): No significant difference
  serum leptin: No significant difference
  serum triglyceride (TG): no significant difference; also recorded: tendency of reduction
  total serum cholesterol (TC): No significant difference
